From paper PMC9082326 (RSC Advances, 2019)
Where two headings read alike, the source gives them in different places.

How the values were obtained:
[1] = target: T1, hERG (Homo sapiens, UniProt Q12809); assay: Western blot of hERG maturation; format: cell-based; details: 24 h, HEK-hERG; for hERG maturation (mature/immature ratio), dose–response: 0.5–20 μM
[2] = target: T1, hERG; assay: Immunofluorescence microscopy of hERG localization in HEK-hERG cells; format: cell-based; details: 24 h, pentamidine 10 μM, analogues 10 μM
[3] = tested on: mammalian cell lines; details: cited from earlier work
[4] = tested on: Pneumocystis; details: cited from earlier work

T1 sequence (Q12809 whole entry): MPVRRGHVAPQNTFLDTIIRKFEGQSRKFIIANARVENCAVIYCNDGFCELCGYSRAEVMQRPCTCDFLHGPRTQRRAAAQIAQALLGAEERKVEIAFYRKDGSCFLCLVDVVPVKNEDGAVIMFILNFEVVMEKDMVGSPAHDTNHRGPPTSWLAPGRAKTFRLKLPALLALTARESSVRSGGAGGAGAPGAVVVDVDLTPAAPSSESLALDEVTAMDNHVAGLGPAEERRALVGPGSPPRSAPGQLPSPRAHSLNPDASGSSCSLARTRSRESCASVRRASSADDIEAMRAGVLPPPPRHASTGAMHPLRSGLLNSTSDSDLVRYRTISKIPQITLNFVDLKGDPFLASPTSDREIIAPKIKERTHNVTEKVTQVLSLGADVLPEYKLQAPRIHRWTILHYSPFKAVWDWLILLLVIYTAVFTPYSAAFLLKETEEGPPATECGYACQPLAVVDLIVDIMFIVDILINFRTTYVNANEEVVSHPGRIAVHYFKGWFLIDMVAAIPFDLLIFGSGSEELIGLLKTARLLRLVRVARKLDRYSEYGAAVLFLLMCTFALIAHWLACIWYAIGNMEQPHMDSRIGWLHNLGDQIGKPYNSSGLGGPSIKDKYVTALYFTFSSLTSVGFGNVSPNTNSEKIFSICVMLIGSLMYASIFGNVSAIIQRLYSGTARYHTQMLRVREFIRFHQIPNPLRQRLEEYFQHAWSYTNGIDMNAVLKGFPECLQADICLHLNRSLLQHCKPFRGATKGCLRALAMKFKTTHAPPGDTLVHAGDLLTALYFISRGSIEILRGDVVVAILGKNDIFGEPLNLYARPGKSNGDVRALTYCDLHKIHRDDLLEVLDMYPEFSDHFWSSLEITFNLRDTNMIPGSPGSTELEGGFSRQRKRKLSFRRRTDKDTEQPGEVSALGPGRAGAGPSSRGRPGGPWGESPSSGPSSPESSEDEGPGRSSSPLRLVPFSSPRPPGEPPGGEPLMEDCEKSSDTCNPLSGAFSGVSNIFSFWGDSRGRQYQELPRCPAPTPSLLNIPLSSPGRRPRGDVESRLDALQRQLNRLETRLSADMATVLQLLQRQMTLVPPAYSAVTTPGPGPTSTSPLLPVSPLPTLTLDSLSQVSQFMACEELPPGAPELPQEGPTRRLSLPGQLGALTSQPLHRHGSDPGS

| Compound | hERG maturation (mature/immature ratio), dose–response [1] | subcellular localization / membrane expression of hERG [2] | cytotoxicity ([3]; mammalian cell lines) | further results |
| --- | --- | --- | --- | --- |
| Cl.Cl.N=C(N)c1ccc(OCCSCCOc2ccc(C(=N)N)cc2)cc1 [Compound 1, 1,5-bis(4-amidinophenoxy)-3-thiapentane dihydrochloride] | dose-dependently decreased | pattern comparable with control cells and clear membrane staining was detected | less or moderate cytotoxicity | – |
| Cl.Cl.c1cc(C2=NCCN2)ccc1OCCSCCOc1ccc(C2=NCCN2)cc1 [Compound 4, 1,5-bis[4-(4,5-dihydro-2-imidazolyl)phenoxy]-3-thiapentane dihydrochloride] | – | – | less or moderate cytotoxicity | – |
| Cl.Cl.N=C(N)c1ccc(SCCOCCSc2ccc(C(=N)N)cc2)cc1 [Compound 2, 1,5-bis[4-(amidino)phenylthio]-3-oxapentane dihydrochloride] | dose-dependently decreased | pattern comparable with control cells and clear membrane staining was detected | – | – |
| Cc1cc(C(=N)N)cc(C)c1OCCN(CCOc1c(C)cc(C(=N)N)cc1C)S(=O)(=O)c1ccccc1.Cl.Cl [3-phenylsulfonyl-1,5-bis(4-amidino-2,6-dimethylphenoxy)-3-azapentane dihydrochloride, reference compound] | – | – | – | anti-Pneumocystis activity [4]: promising activity; cytotoxicity [3]: very low cytotoxicity |
| CN(CCOc1ccc(NS(C)(=O)=O)cc1)CCc1ccc(NS(C)(=O)=O)cc1 [Dofetilide, reference compound] | – | – | – | hERG maturation (mature/immature ratio) ([1]; pentamidine 10 μM, dofetilide 1 μM, analogues 1 and 10 μM): increases |
